In assay [1] the target is T1, NanoLuc-SIRT2 fusion construct (Homo sapiens, UniProt Q8IXJ6).
T1 construct: HEK293T cells expressing the NanoLuc-tagged SIRT2(50-356) fusion protein were used; expressed in transfected cells; transient transfection for SH10
T1 sequence (Q8IXJ6 50-356): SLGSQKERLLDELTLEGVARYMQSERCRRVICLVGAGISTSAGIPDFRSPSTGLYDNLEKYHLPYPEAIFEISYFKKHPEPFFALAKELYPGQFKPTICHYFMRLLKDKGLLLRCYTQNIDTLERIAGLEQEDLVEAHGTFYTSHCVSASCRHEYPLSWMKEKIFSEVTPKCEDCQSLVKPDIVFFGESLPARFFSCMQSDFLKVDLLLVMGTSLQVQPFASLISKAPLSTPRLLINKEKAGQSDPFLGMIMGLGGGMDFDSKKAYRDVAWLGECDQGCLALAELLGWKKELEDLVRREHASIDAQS
Nature of the assay: NanoBRET cellular target engagement assay in HEK293T cells. Type of assay: cell-based. The following applies: HEK293T cells transiently transfected with NanoLuc-SIRT2; 2 μM tracer; read-out: NanoBRET EC50 (cellular SIRT2 target engagement), reference.

Assay [2] has as its system SIRT2. The following applies: read-out: Published IC50 SIRT2; cited from earlier work.

In general, EC50 refers to the concentration giving half of the maximal effect. As usually defined, the IC50 is the concentration at which inhibition is half-maximal.

In the case of `Cc1cc(C)nc(SCC(=O)Nc2ncc(Cc3cccc(OCc4cn(Cc5ccc(OCCN6CCOCC6)cc5)nn4)c3)s2)n1` [Vogelmann_12, reference compound], the EC50 in assay [1] turned out to be 99 nM. Further, in assay [2], the IC50 is 120 nM.

The values above are taken from publication PMC12412615, “Tailored SirReal-type inhibitors enhance SIRT2 inhibition through ligand stabilization and disruption of NAD^+ co-factor binding” (RSC Medicinal Chemistry, 2025).
